# “Also recorded” adds a separate entry of the source. Read-outs that look alike come from different tables or passages of the source.
# How the values were obtained:
# MCA205 sarcoma = test: Tumor growth of established MCA205 sarcoma under anti-CTLA4 (9D9) therapy, with antibiotics, gene-deficient hosts, co-administered mAbs or oral bacteria; conditions: for Effect of antibiotic regimen on the antitumor effects of 9D9 Ab against MCA205 sarcomas: SPF mice, antibiotics in drinking water
# Experimental: Mice were subcutaneously injected into the right flank with 1×10^6 MCA205-0VA or MC38, or with 0.2×10^6 CT26 tumor cell lines. When tumors reached a size of 25 to 40 mm^2 (day 0), mice were injected intraperitoneally (i.p) with 100 μg of anti-CTLA-4 mAb (clone 9D9) or isotype control (clone MPC11). Mice were injected 5 times at 3-day intervals with 9D9, and tumor size was routinely monitored by means of a caliper. In order to evaluate the synergistic effect of vancomycin and anti-CTLA4, a prophylactic setting was established. […] In experiments using anti-IL-12p40 mAb (clone C17.8, 500 μg per mouse) or anti-Ly6G mAb (clone 1A8, 200 μg per mouse), mAbs (or their isotype controls, clone 2A3 in both cases) were injected i.p. every 2 days starting from day 0 until the final anti-CTLA-4 injection. […] All mAbs for in vivo use were obtained from BioXcell (West Lebanon, N.H., USA), using the recommended isotype control mAbs. The inhibitor of iNOS, NG-monomethyl-L-arginine (L-NMMA; Sigma), was administered in PBS daily to mice i.p. at a dose of 2 mg per mouse from the start of anti-CTLA4 treatment.
# Mice were treated with antibiotics 2-3 weeks before tumor implantation and continued on antibiotics until the end of the experiment. A mix of ampicillin (1 mg/ml), streptomycin (5 mg/ml), and colistin (1 mg/ml) (Sigma-Aldrich), or vancomycin alone (0.25 mg/ml), or imipenem alone (0.25 mg/ml), or colistin alone (2.103 U/ml) were added in sterile drinking water. Solutions and bottles were changed 2-3 times a week, or daily for experiments with imipenem. Antibiotic activity was confirmed by macroscopic changes observed at the level of caecum (dilatation) and by cultivating the fecal pellets resuspended in BHI+15% glycerol at 0.1 g/ml on blood agar plates for 48 h at 37° C. with 5% CO2 in aerobic or anaerobic conditions.
# For inoculation of GF mice or mice treated with broad-spectrum antibiotics, colonization was performed the day following the first anti-CTLA4 injection by oral gavage with 100 μl of suspension containing 1×10^9 bacteria. Efficient colonization was checked by culture of feces 48 h post oral gavage. Bacteroides fragilis, Bacteroides thetaiotaomicron, Bacteroides distasonis, Bacteroides uniformis, Lactobacillus plantarum and Enterococcus hirae were grown on COS agar plates (Biomerieux) for 48 h at 37° C. with 5% CO2 in anaerobic conditions. E. coli and Burkholderia cepacia were grown on COS agar plates for 24 h at 37° C. with 5% CO2 in aerobic conditions. Bacteria were harvested from the agar plates, suspended in sterile PBS, centrifuged and washed once with PBS, then resuspended in sterile PBS at an optical density (600 nm) of 1, which corresponds approximately to 1×10^9 colony-forming units (CFU)/ml. In cases where more than one bacteria was administered, an equal volume of each bacteria suspension was mixed to give a suspension of equal proportion of each type of bacteria, to a total 1×10^9 bacteria/ml. For bacteria reconstitution experiments using mice previously treated with antibiotics, antibiotics treatment was stopped after 2-3 weeks at the first anti-CTLA4 injection, and mice were orally gavaged with 1×10^9 CFU the following day. B. distasonis, B. uniformis, E. hirae, and E. coli isolates used in the experiments were originally isolated from feces or mesenteric lymph nodes of SPF mice treated with anti-CTLA4 and identified as described above. […] LPS-EK and LTA-SA (Invivogen) were administrated by oral gavage, at a dose of 500 μg per mouse.
# [1] = tested on: small intestine and colon; test: Histology and histopathological scoring of gut tissue; assay type: in vivo, mice; conditions: vancomycin-treated tumor bearers
# Experimental: The whole small intestine (duodenum, jejunum and ileum) and the colon were removed, cleaned from feces and fixed in 4% PFA for 1 h. Rehydratation of the tissue was performed in 15% sucrose for 1 h and in 30% sucrose overnight. Small intestines or colons were cut longitudinally, with the resulting ribbons rolled, then embedded in optimum cutting temperature (OCT) compound (Sakura), snap frozen, and longitudinal 6 μm sections were prepared. For histological analysis, longitudinal sections were counterstained with hematoxilin and eosin. For histological quantitative analysis, inflammatory foci, appearance of the submucosa, length of villi, and the thickness of lamina propria were scored for each section by a pathologist.
# [2] = tested on: bacterial families and orders in feces; test: 454 pyrosequencing of 16S rRNA gene amplicons of feces from tumor bearers
# Experimental: Fecal samples used in this study were collected before or after one injection of anti-CTLA4 (or isotype control) from mice under vancomycin regimen or water, and were kept at −80° C. until further analysis. Library preparation and sequencing were conducted at GATC Biotech AG (Konstanz, Germany).
# CD4+CD45RO+ T cells = test: Recall of human CD4+ T cell responses directed against commensals (IFNγ, IL-10); assay type: cell-based
# Experimental: (§1) All clinical studies were conducted after informed consent of the patients, following the guidelines of the Declaration of Helsinki. Peripheral blood mononuclear cells (PBMC) were provided by Gustave Roussy (Villejuif, France) and by the Department of Radiation Oncology (New York University, New York, N.Y., USA). Patients were included in the following protocols: LUDWIG: MAGE3 protein—based vaccines (25), Meladex vaccine Phase I trial (26), Mel-Ipi-Rx, NCT01557114 (European Union Drug Regulating Authorities clinical trial EudraCT 2010-020317-93) and a pilot study approved by the Kremlin Bicetre Hospital Ethics Committee (n° SC12-018; ID RCB: 2012-A01496-37). Ipilimumab/radiotherapy abscopal effect trials in MM and NSCLC at NYU (Study code: NCT01689974, Study code: NCT0222173). MM patients at baseline were investigated prior to vaccine injections in the Ludwig and Meladex protocols. For memory T cell responses, blood samples were drawn from patients before and after 3 or 4 cycles of ipilimumab. Pyrosequencing analyses of 16S rRNA of gene amplicons in patients feces pre- and post-injections of ipilimumab (V0, V1, V2) were performed according to n° SC12-018; ID RCB: 2012-A01496-37 pilot study endpoints by GATC Biotech AG (Konstanz, Germany).
# Assessing CD4^+ T cell memory responses. Murine systems. Bone marrow-derived dendritic cells (BM-DCs) were generated from femurs and tibiae of C57BL/6 mice, cultured for 7 days in Iscove's medium (Sigma-Aldrich) with J558 supernatant (final GM-CSF concentration of 40 ng/ml), 10% FCS, 100 IU/ml penicillin/streptomycin, 2 mM L-glutamine, 50 μM 2-mercaptoethanol (Sigma-Aldrich) and split every 3-4 days. At day 7, BM-DCs were infected with the isolated bacterial strains at multiplicity of infection (MOI) of 10 or 50, for 1 h at 37° C. in complete Iscove's medium without antibiotics, onto specific low binding 6 wells plates (Sigma). Cells were then washed with PBS and incubated in complete Iscove's medium supplemented with gentamicin (50 μg/ml) to kill extracellular bacteria. For Burkholderia cepacia, the antibiotic meropenem (2 μg/mL, Astra Zeneca) was required. After 24 h, BM-DCs were cultured together with CD4^+ T cells purified from the spleens of mice that had received 7 days treatment of anti-CTLA4 mAb (i.e 3 anti-CTLA4 mAb injections, as detailed above) in complete RPMI medium. CD4^+ T cells were isolated by depletion of non CD4^+ T cells using a cocktail of biotin-conjugated antibodies against CD8a, CD11b, CD11c, CD19, CD45R (B220), CD49b (DX5), CD105, Anti-MHC-class II, Ter-119 and TCRγ/δ as primary labeling reagent. The cells were then magnetically labeled with Anti-Biotin MicroBeads (Miltenyi Biotec, France). […]
# [3] = tested on: gut microbiome of metastatic melanoma patients; test: Pyrosequencing of 16S rRNA gene amplicons of patients' feces and clustering into enterotypes A, B, C; assay type: in vivo, human
# Experimental: as §1
# GOLD: Prospective immunomonitoring study of patients with metastatic melanoma receiving four injections of Ipilimumab every three weeks. In addition to peripheral blood sampling for memory T cell responses assessment, feces were collected before each Ipilimumab injection. Feces samples were frozen at −80° C. and sent for 16RNA pyrosequencing analysis at GATC Biotech AG (Konstanz, Germany).
# metastatic melanoma = conditions: cited from earlier work; for Durable disease control: after more than 7 years of follow-up, MM
compound,measurement,setting,value
"CNC(=N)NCCC[C@H](N)C(=O)O [L-NMMA, NG-monomethyl-L-arginine]",9D9 mAb-induced tumoricidal activity upon neutralization of nitric oxide,MCA205 sarcoma; 2 mg per mouse daily i.p.,failed to affect; also recorded: did not alter the antitumor effects
"CN[C@H](CC(C)C)C(=O)N[C@H]1C(=O)N[C@@H](CC(N)=O)C(=O)N[C@H]2C(=O)N[C@H]3C(=O)N[C@H](C(=O)N[C@H](C(=O)O)c4cc(O)cc(O)c4-c4cc3ccc4O)[C@H](O)c3ccc(c(Cl)c3)Oc3cc2cc(c3O[C@@H]2O[C@H](CO)[C@@H](O)[C@H](O)[C@H]2O[C@H]2C[C@](C)(N)[C@H](O)[C@H](C)O2)Oc2ccc(cc2Cl)[C@H]1O [Vancomycin, vancomycin]",Histopathological score of colonic mucosae under anti-CTLA4,[1],worsened the histopathological score
same,Depletion of Bacteroidales and Burkholderiales provoked by CTLA4 blockade,[2]; vancomycin conditioning,prevented the depletion; also recorded: prevented the loss
same,Representation of Bacteroidales (and Enterobacteriales) at the expense of Clostridiales,[2]; vancomycin in drinking water,overrepresentation
same,Effect of antibiotic regimen on the antitumor effects of 9D9 Ab against MCA205 sarcomas,MCA205 sarcoma,boosted the antitumor effects; also recorded: augments the tumoricidal effects
same,Effect of antibiotic regimen on the antitumor effects of 9D9 Ab against MCA205 sarcomas,MCA205 sarcoma; listed as vancomycin,ameliorated the tumor growth reduction
Ipilimumab,Decreased commensal-specific Th1 immunity of cancer patients,CD4+CD45RO+ T cells; at least in some cases,restored
same,"IL-10 production by T cells responding to Bf, B. thetaiotaomicron and to some extent Burkholderia cepacia","CD4+CD45RO+ T cells; melanoma patients, after at least 2 injections",inhibited
same,IFNγ secretion by T cells responding to Bf and B. thetaiotaomicron,"CD4+CD45RO+ T cells; melanoma patients, after at least 2 injections, not E. coli, E. faecalis or irrelevant bacteria",significantly increased
same,B. thetaiotaomicron-specific Tr1 immune responses,CD4+CD45RO+ T cells; paired analyses on 5-12 patients,decrease
same,Proportion of MM patients falling into cluster C during therapy,[3]; from 26 before therapy,39%
same,Proportion of MM patients belonging to cluster B during therapy,[3]; from 58 before therapy,39%
same,Stools of a B pattern that turned into the C favorable enterotype,"[3]; paired analysis of feces in 12 cases, 2 out of 7",29%
same,Durable disease control,metastatic melanoma,about 20%
same,Durable disease control,metastatic melanoma; listed as ipilimumab,approximately 20%
same,Immune-related adverse events of grade III-IV,"metastatic melanoma; human, in vivo, iv",20%
same,Life threatening immune-related adverse events,"metastatic melanoma; human, in vivo",< 5%
colistin,Effect of antibiotic regimen on the antitumor effects of 9D9 Ab against MCA205 sarcomas,MCA205 sarcoma,compromised the antitumor effects
lipoteichoic acid,Restoration of 9D9 mAb-induced antitumor effects lost in ACS-treated mice,"MCA205 sarcoma; oral administration, 500 μg per mouse",failed to restore
